Source: the supplement of paper PMC10307832

Tests used:
Assay in all cases: relative viability (nuclei count vs DMSO), 5 days (fraction); higher = more cells survive
[1] = compound: COC1=CC=C(C=C1)CN2C=CC3=C2C=C(C=C3)C(=O)NO + NC(=O)Nc1cc(-c2cccc(F)c2)sc1C(=O)N[C@H]1CCCNC1 [AZD7762] (partner 0.2 µM)
Procedure, shortened: (§1)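 Cells from lung cancer lines were seeded into 1536-well plates and, one day later, dosed by pin tool. Treatments were either a single drug or a fixed dose of an anchor drug with five library-drug doses (not always all listed) in √10 steps. After 5 days, nuclei were stained in a one-step fixation (final 0.05% Triton X-100, 1% formaldehyde, 1 ug/ml Hoechst) and counted on 4× images, and relative viability is the treated-to-vehicle nuclei ratio, as the median of duplicate plates.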

[2] = compound: COC1=CC=C(C=C1)CN2C=CC3=C2C=C(C=C3)C(=O)NO + O=C(c1cc(Cc2n[nH]c(=O)c3ccccc23)ccc1F)N1CCN(C(=O)C2CC2)CC1 [Olaparib] (partner 8 µM)
Procedure, shortened: as §1

[3] = compound: C[C@]1(c2nc3c(C(N)=O)cccc3[nH]2)CCCN1 [Veliparib] + COc1cc2c(Oc3ccc(NC(=O)C4(C(=O)Nc5ccc(F)cc5)CC4)cc3F)ccnc2cc1OCCCN1CCOCC1 [Foretinib] (partner 0.25 µM)
Procedure, shortened: as §1

[4] = compound: C[C@]1(c2nc3c(C(N)=O)cccc3[nH]2)CCCN1 [Veliparib] + C[C@@H](Oc1cc(-c2cnn(C3CCNCC3)c2)cnc1N)c1c(Cl)ccc(F)c1Cl [Crizotinib] (partner 1 µM)
Procedure, shortened: as §1

| Cell Line | relative viability ([1]; first compound 0.08 µM) | relative viability ([1]; first compound 0.253 µM) | relative viability ([1]; first compound 0.8 µM) | relative viability ([1]; first compound 2.53 µM) | relative viability ([1]; first compound 8 µM) | relative viability ([2]; first compound 0.08 µM) | relative viability ([2]; first compound 0.253 µM) | relative viability ([2]; first compound 0.8 µM) | relative viability ([2]; first compound 2.53 µM) | relative viability ([2]; first compound 8 µM) | relative viability ([3]; first compound 0.02 µM) | relative viability ([3]; first compound 0.06325 µM) | relative viability ([3]; first compound 0.2 µM) | relative viability ([3]; first compound 0.6325 µM) | relative viability ([3]; first compound 2 µM) | relative viability ([4]; first compound 0.02 µM) | relative viability ([4]; first compound 0.06325 µM) | relative viability ([4]; first compound 0.2 µM) | relative viability ([4]; first compound 0.6325 µM) | relative viability ([4]; first compound 2 µM) |
| --- | --- | --- | --- | --- | --- | --- | --- | --- | --- | --- | --- | --- | --- | --- | --- | --- | --- | --- | --- | --- |
| HCC-78 | 0.575 | 1.21 | 0.589 | 0.512 | 0.496 | 0.748 | 0.776 | 0.815 | 0.968 | 0.535 | 0.557 | 0.557 | 0.568 | 0.539 | 0.571 | 0.342 | 0.3 | 0.409 | 0.383 | 0.352 |
| HCC-366 | 0.239 | 0.265 | 0.302 | 0.235 | 0.203 | 0.237 | 0.338 | 0.371 | 0.375 | 0.292 | 0.987 | 0.813 | 0.891 | 0.809 | 0.934 | 0.592 | 0.38 | 0.543 | 0.401 | 0.419 |
| HCC-827 | 0.228 | 0.259 | 0.159 | 0.218 | 0.196 | 0.573 | 0.697 | 0.655 | 0.68 | 0.531 | 1.08 | 1.01 | 0.984 | 1.03 | 1.02 | 0.913 | 0.919 | 0.947 | 0.921 | 0.905 |
| IA-LM |  |  |  |  |  | 0.755 | 0.846 | 0.954 | 0.902 | 0.833 | 1.3 | 1.21 | 1.2 | 1.16 | 1.12 | 0.947 | 0.689 | 0.743 | 0.753 | 0.75 |
| NCI-H520 |  |  |  |  |  | 0.342 | 0.362 | 0.327 | 0.339 | 0.286 | 0.824 | 0.763 | 0.805 | 0.601 | 0.647 | 0.808 | 0.698 | 0.697 | 0.713 | 0.836 |
| NCI-H522 |  | 0.792 | 1.06 | 0.951 | 0.612 |  | 0.669 | 0.693 | 0.65 | 0.568 |  |  |  |  |  |  |  |  |  |  |
| NCI-H661 |  |  |  |  |  |  | 0.726 | 0.778 | 0.67 | 0.66 | 0.999 | 1.02 | 0.866 | 0.892 | 0.998 | 0.91 | 0.884 | 0.909 | 0.885 | 0.963 |
| NCI-H1299 |  |  |  |  |  | 1.04 | 0.98 | 0.948 | 1.03 | 0.92 | 1.16 | 1.04 | 1.05 | 1.04 | 1.08 | 1.04 | 0.945 | 0.95 | 0.928 | 0.948 |
| NCI-H1395 |  | 0.394 | 0.382 | 0.398 | 0.397 |  | 0.419 | 0.49 | 0.496 | 0.436 | 0.956 | 0.898 | 0.957 | 0.795 | 0.806 |  |  |  |  |  |
| NCI-H1563 |  |  |  |  |  |  |  |  |  |  | 0.845 | 0.917 | 1.03 | 0.918 | 1.05 | 0.91 | 0.762 | 0.89 | 0.857 | 0.808 |
| NCI-H1623 |  |  |  |  |  |  |  |  |  |  | 0.639 | 0.796 | 0.855 | 0.811 | 0.716 |  |  |  |  |  |
| NCI-H1648 | 0.523 | 0.584 | 0.723 | 0.447 | 0.525 | 0.81 | 0.725 | 0.964 | 0.932 | 0.651 |  |  |  |  |  |  |  |  |  |  |
| NCI-H1650 |  |  |  |  |  | 0.753 | 0.813 | 0.775 | 0.762 | 0.78 |  | 0.895 | 1.35 | 0.98 | 1.17 |  | 0.899 | 1.11 | 0.81 | 0.919 |
| NCI-H1792 | 0.755 | 0.792 | 0.716 | 0.592 | 0.55 | 0.438 | 0.578 | 0.445 | 0.447 | 0.561 |  |  |  |  |  | 0.98 | 0.919 | 0.942 | 0.93 | 0.939 |
| NCI-H1793 |  | 0.726 | 0.444 | 0.557 | 0.406 |  | 0.911 | 0.898 | 0.893 | 0.865 | 0.652 | 0.608 | 0.814 | 0.747 | 0.794 |  |  |  |  |  |
| NCI-H2009 |  |  |  |  |  | 0.682 | 0.694 | 0.678 | 0.643 | 0.658 | 1.35 | 1.21 | 1.17 | 1.2 | 1.28 | 1.1 | 0.934 | 1.05 | 1.03 | 1.03 |
| NCI-H2023 |  |  |  |  |  | 0.453 | 0.475 | 0.464 | 0.433 | 0.413 | 0.78 | 0.691 | 0.852 | 0.885 | 0.788 | 0.567 | 0.616 | 0.635 | 0.567 | 0.601 |
| NCI-H2228 |  |  |  |  |  | 0.686 | 0.82 | 0.79 | 0.88 | 0.651 | 0.794 | 0.731 | 0.845 | 0.737 | 0.957 | 0.436 | 0.405 | 0.457 | 0.447 | 0.475 |
| NCI-H2342 | 0.475 | 0.44 | 0.468 | 0.379 | 0.389 | 0.437 | 0.449 | 0.457 | 0.442 | 0.373 | 1.16 | 1.05 | 1.06 | 1.01 | 0.903 |  |  |  |  |  |
| SK-LU-1 |  |  |  |  |  | 0.436 | 0.443 | 0.627 | 0.449 | 0.422 | 0.874 | 0.756 | 0.899 | 0.644 | 0.902 | 1.15 | 0.924 | 1.07 | 0.848 | 0.803 |
| SK-MES-1 |  |  |  |  |  | 0.788 | 0.665 | 0.676 | 0.64 | 0.598 | 1 | 0.799 | 0.995 | 0.837 | 1.01 | 0.973 | 0.901 | 0.951 | 0.854 | 0.956 |
| SW 900 | 0.646 | 0.596 | 0.579 | 0.597 | 0.403 | 0.759 | 0.956 | 0.769 | 0.849 | 0.604 |  |  | 0.905 | 0.781 | 0.945 |  |  |  |  |  |
| UMC-11 |  |  |  |  |  | 0.373 | 0.355 | 0.415 | 0.911 | 0.373 | 1.29 | 0.959 | 0.998 | 0.948 | 1.02 | 0.549 | 0.654 | 0.595 | 0.547 | 0.577 |
